Data: US7211573B2, “Malonamide derivatives” (Hoffmann-La Roche Inc., priority 2004, dated 2007)

SMILES | melting point
CCN1C(=O)[C@@H](NC(=O)C(C)C(=O)NCC(F)(F)C(F)(F)F)COc2ccccc21 (stereo partly drawn) [Example 14, N-((S)-9-Ethyl-8-oxo-6,7,8,9-tetrahydro-5-oxa-9-aza-benzocyclohepten-7-yl)-2-methyl-N′-(2,2,3,3,3-pentafluoro-propyl)-malonamide] | 152 °C
Cc1cccc2c1OC[C@H](NC(=O)C(C)C(=O)NCC(F)(F)C(F)(F)F)C(=O)N2C (stereo partly drawn) [Example 10b, N-((S)-4,9-Dimethyl-8-oxo-6,7,8,9-tetrahydro-5-oxa-9-aza-benzocyclohepten-7-yl)-2-methyl-N′-(2,2,3,3,3-pentafluoro-propyl)-malonamide] | 107 °C
C[C@H](OC(=O)NCC(F)(F)C(F)(F)F)C(=O)N[C@@H]1C(=O)N(C)c2cc(F)ccc2O[C@@H]1C [Example 48, (2,2,3,3,3-Pentafluoro-propyl)-carbamic acid (S)-1-((6R,7S)-2-fluoro-6,9-dimethyl-8-oxo-6,7,8,9-tetrahydro-5-oxa-9-aza-benzocyclohepten-7-ylcarbamoyl)-ethyl ester] | 148 to 150 °C
CC(C(=O)NCC(F)(F)C(F)(F)F)C(=O)N[C@@H]1C(=O)N(C)c2c(F)cccc2O[C@@H]1C (stereo partly drawn) [Example 37, N-((6R,7S)-1-Fluoro-6,9-dimethyl-8-oxo-6,7,8,9-tetrahydro-5-oxa-9-aza-benzocyclohepten-7-yl)-2-methyl-N′-(2,2,3,3,3-pentafluoro-propyl)-malonamide] | 126 to 134 °C
CC(C(=O)NCC(F)(F)C(F)(F)F)C(=O)N[C@@H]1C(=O)Nc2cc(F)ccc2O[C@@H]1C (stereo partly drawn) [Example 23, N-((6R,7S)-2-Fluoro-6-methyl-8-oxo-6,7,8,9-tetrahydro-5-oxa-9-aza-benzocyclohepten-7-yl)-2-methyl-N′-(2,2,3,3,3-pentafluoro-propyl)-malonamide] | 215 to 216 °C
CC(C(=O)NCC(F)(F)C(F)(F)F)C(=O)N[C@@H]1C(=O)N(C)c2cc(F)ccc2O[C@@H]1C (stereo partly drawn) [Example 38, N-((6R,7S)-2-Fluoro-6,9-dimethyl-8-oxo-6,7,8,9-tetrahydro-5-oxa-9-aza-benzocyclohepten-7-yl)-2-methyl-N′-(2,2,3,3,3-pentafluoro-propyl)-malonamide] | 126 to 134 °C
